{
  "source": "patent US20140371162A1",
  "about": "“COMBINATION THERAPY COMPRISING SGLT INHIBITORS AND DPP4 INHIBITORS” (MITSUBISHI TANABE PHARMA CORPORATION, priority 2008, published 2014)",
  "key": {"[1]": {"test_system": "plasma active GLP-1 level", "test": "Plasma active GLP-1 level in glucose-loaded normal (DPP4-positive) rats, Example 2", "type": "in vivo, rat", "settings": "DPP4-positive male Fisher rats, mean ± SEM, n=6", "procedure": "DPP4-positive male Fisher rats (purchased from Japan SLC, Inc.)\n(§1) Each test compound was suspended in a solution of 0.5% carboxymethyl cellulose containing 0.2% Tween 80 at the doses indicated in Table 2, and administered to the test group orally at a volume of 5 mL/kg. The vehicle control group was orally administered a solution of 0.5% carboxymethyl cellulose containing 0.2% Tween 80 at a volume of 5 mL/kg. Just after the administration of the compound or vehicle, a glucose solution (2 g/kg/5 mL) was given orally.\nBlood was collected from the caudal vein of an unanesthetized rat just before and 0.2, 0.5, 1, and 2 hours after glucose loading. Plasma active GLP-1 level was determined by using RAT ENDOCRINE LINCOplex KIT (LINCO Research)."}, "[2]": {"test_system": "plasma active GLP-1 level", "test": "Plasma active GLP-1 level in glucose-loaded diabetic mice", "type": "in vivo", "settings": "male db/db mice, mean ± SEM, n=8", "procedure": "Male BKS.Cg−+Lepr^db/+Lepr^db/Jcl mice; an Animal Model of Type 2 Diabetes (Purchased from CLEA Japan, Inc.)\nas §1, with “3,” for “2,”\nBlood was collected from the caudal vein of an unanesthetized mice just before and 0.5, 1, and 2 hours after glucose loading. Plasma active GLP-1 level was determined by using RAT ENDOCRINE LINCOplex KIT (LINCO Research)."}, "[3]": {"test_system": "plasma active GLP-1 level", "test": "Plasma active GLP-1 level in glucose-loaded DPP4-deficient rats", "type": "in vivo, rat", "settings": "for GLP-1 concentration at each time point (hr) after oral administration: DPP4-deficient male Fisher rats, mean ± SEM, n=6", "procedure": "DPP4-deficient male Fisher rats (purchased from Charles River Japan, Inc.)\nas §1, with “The” for “Each”, “1,” for “2,”, “ml)” for “mL)”\nBlood was collected from the caudal vein of an unanesthetized rat just before and 0.5, 1, and 3 hours after glucose loading. Plasma active GLP-1 level was determined by using RAT ENDOCRINE LINCOplex KIT (LINCO Research)."}, "[4]": {"test_system": "plasma active GLP-1 level", "test": "Plasma active GLP-1 level in glucose-loaded normal (DPP4-positive) rats, Example 4", "type": "in vivo, rat", "settings": "Table 6, 10 mg/kg oral, DPP4-positive male Fisher rats, mean ± SEM, n=5 or 6", "quoted_text": "Each test compound was suspended in a solution of 0.5% carboxymethyl cellulose containing 0.2% Tween 80 at the doses indicated in Table 4, 5 or 6, and administered to the test group orally at a volume of 5 mL/kg. The vehicle control group was orally administered a solution of 0.5% carboxymethyl cellulose containing 0.2% Tween 80 at a volume of 5 mL/kg. Just after the administration of the compound or vehicle, a glucose solution (2 g/kg/5 mL) was given orally.\nBlood was collected from the caudal vein of an unanesthetized rat at appropriate time described in the table. Plasma active GLP-1 level was determined by using RAT ENDOCRINE LINCOplex KIT (LINCO Research)."}, "[5]": {"settings": "0 hr (just before), 10 mg/kg oral"}, "[6]": {"settings": "0 hr (just before), 30 mg/kg oral"}, "[7]": {"settings": "0 hr (just before), 3 mg/kg oral"}},
  "data": [
    {"compound": "OC[C@H]1O[C@@H](c2ccc(Cl)c(Cc3ccc(-c4cccc(F)n4)s3)c2)[C@H](O)[C@@H](O)[C@@H]1O", "note": "[Compound A, 1-(β-D-glucopyranosyl)-4-chloro-3-[5-(6-fluoro-2-pyridyl)-2-thienylmethyl]benzene]", "values": [
      {"measurement": "GLP-1 concentration at each time point (hr) after oral administration", "setting": "[1]; [5]", "value": "7.7 ± 0.4", "unit": "pM"},
      {"measurement": "GLP-1 concentration at each time point (hr) after oral administration", "setting": "[1]; [6]", "value": "5.9 ± 0.3", "unit": "pM"},
      {"measurement": "GLP-1 concentration at each time point (hr) after oral administration", "setting": "[1]; 0.2 hr, 10 mg/kg oral", "value": "7.9 ± 0.2", "unit": "pM"},
      {"measurement": "GLP-1 concentration at each time point (hr) after oral administration", "setting": "[1]; 0.2 hr, 30 mg/kg oral", "value": "7.1 ± 0.3", "unit": "pM"},
      {"measurement": "GLP-1 concentration at each time point (hr) after oral administration", "setting": "[1]; 0.5 hr, 10 mg/kg oral", "value": "10.2 ± 1.0", "unit": "pM"},
      {"measurement": "GLP-1 concentration at each time point (hr) after oral administration", "setting": "[1]; 0.5 hr, 30 mg/kg oral", "value": "6.7 ± 0.4", "unit": "pM"},
      {"measurement": "GLP-1 concentration at each time point (hr) after oral administration", "setting": "[1]; 1 hr, 10 mg/kg oral", "value": "9.5 ± 0.6", "unit": "pM"},
      {"measurement": "GLP-1 concentration at each time point (hr) after oral administration", "setting": "[1]; 1 hr, 30 mg/kg oral", "value": "7.5 ± 0.9", "unit": "pM"},
      {"measurement": "GLP-1 concentration at each time point (hr) after oral administration", "setting": "[1]; 2 hr, 10 mg/kg oral", "value": "9.6 ± 0.8", "unit": "pM"},
      {"measurement": "GLP-1 concentration at each time point (hr) after oral administration", "setting": "[1]; 2 hr, 30 mg/kg oral", "value": "9.0 ± 0.9", "unit": "pM"},
      {"measurement": "GLP-1 concentration at each time point (hr) after oral administration", "setting": "[2]; [5]", "value": "20.3 ± 9.6", "unit": "pM"},
      {"measurement": "GLP-1 concentration at each time point (hr) after oral administration", "setting": "[2]; 0.5 hr, 10 mg/kg oral", "value": "42.6 ± 13.4", "unit": "pM"},
      {"measurement": "GLP-1 concentration at each time point (hr) after oral administration", "setting": "[2]; 1 hr, 10 mg/kg oral", "value": "49.4 ± 12.0", "unit": "pM"},
      {"measurement": "GLP-1 concentration at each time point (hr) after oral administration", "setting": "[2]; 2 hr, 10 mg/kg oral", "value": "30.9 ± 8.2", "unit": "pM"},
      {"measurement": "GLP-1 concentration at each time point (hr) after oral administration", "setting": "[3]; [5]", "value": "6.2 ± 1.3", "unit": "pM"},
      {"measurement": "GLP-1 concentration at each time point (hr) after oral administration", "setting": "[3]; [6]", "value": "5.3 ± 0.7", "unit": "pM"},
      {"measurement": "GLP-1 concentration at each time point (hr) after oral administration", "setting": "[3]; 0.5 hr, 10 mg/kg oral", "value": "24.5 ± 4.7", "unit": "pM"},
      {"measurement": "GLP-1 concentration at each time point (hr) after oral administration", "setting": "[3]; 0.5 hr, 30 mg/kg oral", "value": "24.9 ± 3.8", "unit": "pM"},
      {"measurement": "GLP-1 concentration at each time point (hr) after oral administration", "setting": "[3]; 1 hr, 10 mg/kg oral", "value": "31.3 ± 7.0", "unit": "pM"},
      {"measurement": "GLP-1 concentration at each time point (hr) after oral administration", "setting": "[3]; 1 hr, 30 mg/kg oral", "value": "34.1 ± 5.7", "unit": "pM"},
      {"measurement": "GLP-1 concentration at each time point (hr) after oral administration", "setting": "[3]; 3 hr, 10 mg/kg oral", "value": "21.9 ± 2.4", "unit": "pM"},
      {"measurement": "GLP-1 concentration at each time point (hr) after oral administration", "setting": "[3]; 3 hr, 30 mg/kg oral", "value": "27.1 ± 2.1", "unit": "pM"},
      {"measurement": "effect on plasma active GLP-1 level (in words)", "setting": "[3]; DPP4-deficient rats, summary of Table 1", "value": "markedly increased"}
    ]},
    {"compound": "CN(C)C(=O)[C@H]1CC[C@H](NCC(=O)N2CCC[C@H]2C#N)CC1.O=S(=O)(O)c1ccccc1", "note": "(relative stereo) [Compound I, (2S)-2-cyano-1-[trans-4-(dimethylaminocarbonyl)cyclohexylamino]acetylpyrrolidine besylate]", "values": [
      {"measurement": "GLP-1 concentration at 2 hr after oral administration", "setting": "[4]", "value": "4.0 ± 0.6", "unit": "pM"}
    ]},
    {"compound": "N#C[C@@H]1CCCN1C(=O)CN[C@H]1CC[C@H](C(=O)N2CCOCC2)CC1", "note": "(relative stereo) [Compound B, (2S)-2-Cyano-1-[trans-4-(morpholinocarbonyl)cyclohexylamino]acetylpyrrolidine]", "values": [
      {"measurement": "GLP-1 concentration at each time point (hr) after oral administration", "setting": "[1]; [7]", "value": "7.2 ± 0.6", "unit": "pM"},
      {"measurement": "GLP-1 concentration at each time point (hr) after oral administration", "setting": "[1]; 0.2 hr, 3 mg/kg oral", "value": "9.8 ± 0.7", "unit": "pM"},
      {"measurement": "GLP-1 concentration at each time point (hr) after oral administration", "setting": "[1]; 0.5 hr, 3 mg/kg oral", "value": "9.4 ± 0.4", "unit": "pM"},
      {"measurement": "GLP-1 concentration at each time point (hr) after oral administration", "setting": "[1]; 1 hr, 3 mg/kg oral", "value": "8.3 ± 0.3", "unit": "pM"},
      {"measurement": "GLP-1 concentration at each time point (hr) after oral administration", "setting": "[1]; 2 hr, 3 mg/kg oral", "value": "7.9 ± 0.5", "unit": "pM"},
      {"measurement": "GLP-1 concentration at each time point (hr) after oral administration", "setting": "[2]; [7]", "value": "18.4 ± 5.1", "unit": "pM"},
      {"measurement": "GLP-1 concentration at each time point (hr) after oral administration", "setting": "[2]; 0.5 hr, 3 mg/kg oral", "value": "30.0 ± 5.5", "unit": "pM"},
      {"measurement": "GLP-1 concentration at each time point (hr) after oral administration", "setting": "[2]; 1 hr, 3 mg/kg oral", "value": "46.5 ± 10.1", "unit": "pM"},
      {"measurement": "GLP-1 concentration at each time point (hr) after oral administration", "setting": "[2]; 2 hr, 3 mg/kg oral", "value": "25.0 ± 4.1", "unit": "pM"}
    ]}
  ]
}
